Where only a bound is given, the exact number is not on record here.

Experimental findings from patent publication US8252832B2, “Kinesin inhibitors as cancer therapeutics” (Novartis AG, priority 2007, dated 2012) are described below.

In this experiment the test system is HCT-116. The experiment can be described thus: CTG (CellTiter-Glo) screening assay. Conditions: Homo sapiens. It counts as cell-based. The source says:
Identification of tumor types that are the most sensitive to the KSP inhibitors of the present invention can be accomplished using an unbiased approach that uses several cell-based assays. The assays chosen were as follows: • CellTiter-Glo®. This is an assay designed to measure ATP concentration in a cell culture, and can be correlated to cell number. Briefly CellTiter-Glo® (Promega Corporation) is a homogeneous method using the single CellTiter-Glo® reagent to detect ATP wherein ATP in the assay drives the activity of a thermostable luciferase to create a luminescent signal which can then be measured and correlated with the number of viable cells. Briefly, for adherent cells, 1,000 to 5,000 cells/well were plated in 96-well plates (100 μl/well) and let to adhere for 24 hours before being treated with drug. For non-adherent cells, 1,000 to 10,000 cells/well were plated in 96-well plates (100 μl/well) and immediately treated with drug. Drug dilutions were prepared in DMSO at 1000 times the final concentration. These dilutions were then diluted 1/100 in growth media before being added to the cells (11 μl/well) to achieve the desired final concentration. […] Protocol for a 72 hour cell proliferation assay: The 72 hour assay was performed the same way as the 48 hour assay except for the following modifications: For adherent cells, 500 to 5,000 cells/well were plated in 96-well plates (90 μl/well cell growth media) and left to adhere for 24 hours before being treated with drug. For non-adherent cells, 1,000 to 10,000 cells/well were plated in 96-well plates (90 μl/well cell growth media) and immediately treated with drug. Data values presented represent the concentration of test compound required for a 50% reduction in growth. • LDH release. […] The enzymatic reaction is coupled to a chemical reaction that uses a tetrazolium salt to form a formazan that is red and can be detected by its absorbance at 490 nm. […]
For orientation: Cellular ATP, detected with luciferase, serves as a proxy for viable cell number.

For `CC(C)(C)[C@H](c1nc(-c2cc(F)ccc2F)cn1Cc1ccccc1)N(CC[C@H](N)CF)C(=O)CO` [Compound IIa], the 50% growth inhibitory concentration (GI50) was more than 5 nM (HCT-116, 24 h); 0.11 nM (HCT-116, 48 h); 0.13 nM (HCT-116, 72 h).

What is called GI50 is the concentration at which growth is held to half of that of the control. Low readings indicate more potent growth inhibition, high ones less potent growth inhibition.
